Results: US9061984B2 (University of Louisville Research Foundation, Inc., priority 2008, dated 2015)
In brackets after ≈: the same amount, converted by molar mass. Where two headings read alike, the source gives them in different places.

Columns and labels:
[1] = system: axenic amastigotes of L. amazonensis (strain MHOM/BR/76/LTB-012); test: microbe, parasite or virus in culture; conditions: Leishmania amazonensis, read-out: L. amazonensis IC50
VERO cells [2] = test: Cell growth inhibition bioassay (sulforhodamine B); type: cell-based, African Green Monkey; conditions: Chlorocebus sabaeus, Vero; 48 h, SRB; read-out: GI50 in indicated cell line: VERO
Procedure: (§1) The cytotoxicity of compounds was assayed as follows. […] Appropriate solvent controls were tested for comparison. The percent inhibition of cell growth relative to the control was evaluated colorimetrically using a sulforhodamine B dye by comparison to the control. The calorimetric procedure followed that published in Skehan et al., J. Nat. Cancer Inst., […], pp. 1107-1112 (1990) and Boyd & Paull, Drug Dev. Res., Vol. 34, pp. 91-109 (1995). […] The cell lines are: 3T3 cells are BALB/3T3 clone A31 embryonic mouse fibroblast cells; H460 cells are human large cell lung cancer cells; DU145 cells are human prostate carcinoma cells; MCF-7 cells are human breast adenocarcinoma cells; M-14 cells are human melanoma cells; HT-29 cells are human colon adenocarcinoma cells; PC3 cells are human prostate adenocarcinoma cells; K562 cells are human chronic myelogenous leukemia cells; and VERO cells are African Green Monkey kidney epithelial cells.

M. tuberculosis H37Rv = test: Conventional aerobic (MABA) culture assay, luminescence MIC; type: cell-based, Mycobacterium tuberculosis; conditions: Mycobacterium tuberculosis, 168 h; aerobic, 7 days, H37Rv
3T3 cells = test: Cell growth inhibition bioassay (sulforhodamine B); type: cell-based, mouse; conditions: Mus musculus, NIH3T3; 48 h, SRB; read-out: GI50 in indicated cell line: 3T3
Procedure: as §1

[3] = system: axenic amastigotes of L. amazonensis (strain MHOM/BR/76/LTB-012); conditions: Table 8b
[4] = Cytotoxicity on VERO cells (MTT), anti-T. cruzi study; conditions: African green monkey, VERO cells, Cytotoxicity VERO Lab B, Lab B
M-14 cells = test: Cell growth inhibition bioassay (sulforhodamine B); type: cell-based, human; conditions: Homo sapiens, M14; 48 h, SRB; read-out: GI50 in indicated cell line: M-14
Procedure: as §1

H460 cells = test: Cell growth inhibition bioassay (sulforhodamine B); type: cell-based, human; conditions: Homo sapiens, NCI-H460; 48 h, SRB; read-out: GI50 in indicated cell line: H460
Procedure: as §1

K562 cells = test: Cell growth inhibition bioassay (sulforhodamine B); type: cell-based, human; conditions: Homo sapiens, K562; 48 h, SRB; read-out: GI50 in indicated cell line: K562
Procedure: as §1

HT-29 cells = test: Cell growth inhibition bioassay (sulforhodamine B); type: cell-based, human; conditions: Homo sapiens, HT-29; 48 h, SRB; read-out: GI50 in indicated cell line: HT-29
Procedure: as §1

DU145 cells = test: Cell growth inhibition bioassay (sulforhodamine B); type: cell-based, human; conditions: Homo sapiens, DU-145; 48 h, SRB; read-out: GI50 in indicated cell line: DU145
Procedure: as §1

MCF-7 cells = test: Cell growth inhibition bioassay (sulforhodamine B); type: cell-based, human; conditions: Homo sapiens, MCF7; 48 h, SRB; read-out: GI50 in indicated cell line: MCF-7
Procedure: as §1

[5] = Toxicity to peritoneal macrophages (Trypan Blue count); type: cell-based, BALB/C mouse; conditions: BALB/C, mouse, Cytotoxicity Macrophages IC50
Procedure: Peritoneal macrophages were prepared as follows. Non-inflammatory macrophages (10^6) were collected from each BALB/C mouse. The cells adhered at 37° C. after 2 h under 5% CO2 in a CO2 incubator. The plates were then rinsed two to three times with 0.5 mL of RPMI+buffer MOPS without fetal calf serum to eliminate non-adhering cells. The supernatant on the plates was replaced by fresh medium (RPMI+glutamine+FCS+antibiotics), 0.5 mL of medium per well. To determine the toxicity of the compounds to macrophages, dilutions of compounds were added on a part of the macrophages prepared above. […] The medium was then removed and 1 μL of sterile Trypan Blue was added. Cover glasses N° 1 were left where cells were plated and then the number of macrophages in a microscope was determined with a haemocytometer. All experiments were performed in triplicate.

[6] = system: Trypanosoma cruzi (Tulahuen C4); test: In vitro anti-T. cruzi activity (β-galactosidase CPRG colorimetric assay in VERO monolayer); type: cell-based; conditions: for Selectivity Index Lab B: IC50, VERO/IC50, T. cruzi; for IC50: Trypanosoma cruzi, TULAHUEN, Vero
VERO cells [7] = test: Cytotoxicity on VERO cells (MTT), anti-T. cruzi study; conditions: Chlorocebus sabaeus, Vero, read-out: IC50 VERO, Table 3
[8] = Lab B, read-out: T. cruzi IC50 Lab B
[9] = Lab A, read-out: T. cruzi IC50 Lab A

SMILES: C(=N/Nc1ncnc2sc3c(c12)CCCC3)/c1cccc2ccccc12 [II-02]
- IC50 [1]: 4.6 µM
- GI50 (VERO cells [2]): 4.3 µg/mL (≈ 12 µM)
- MIC (M. tuberculosis H37Rv): > 100 µg/mL
- GI50 (3T3 cells): 6 µg/mL (≈ 16.7 µM)
- Selectivity Index [3]: 1.3
- IC50 [4]: 1 µg/mL (≈ 2.79 µM)
- GI50 (M-14 cells): 6.6 µg/mL (≈ 18.4 µM)
- GI50 (H460 cells): 7.1 µg/mL (≈ 19.8 µM)
- GI50 (K562 cells): 1.7 µg/mL (≈ 4.74 µM)
- GI50 (HT-29 cells): 2.2 µg/mL (≈ 6.14 µM)
- GI50 (DU145 cells): 8.6 µg/mL (≈ 24 µM)
- GI50 (MCF-7 cells): 2.3 µg/mL (≈ 6.42 µM)
- IC50 at 48 h [5]: 6 µM
- Selectivity Index Lab B ([6]; Lab B): 0.2
- IC50 [6, 8]: 4.7 µg/mL

SMILES: CC(C)(C)c1ccc(/C=N\Nc2ncnc3sc4c(c23)CCCC4)cc1 [II-08]
- IC50 [1]: 0.6 µM
- GI50 (VERO cells [2]): 2.5 µg/mL (≈ 6.86 µM)
- MIC (M. tuberculosis H37Rv): > 100 µg/mL
- GI50 (3T3 cells): 8.4 µg/mL (≈ 23 µM)
- Selectivity Index [3]: 3.8
- IC50 [4]: 5 µg/mL (≈ 13.7 µM)
- GI50 (M-14 cells): 11 µg/mL (≈ 30.2 µM)
- GI50 (H460 cells): 2.3 µg/mL (≈ 6.31 µM)
- GI50 (K562 cells): 2.3 µg/mL (≈ 6.31 µM)
- GI50 (HT-29 cells): 5.7 µg/mL (≈ 15.6 µM)
- GI50 (DU145 cells): 8 µg/mL (≈ 21.9 µM)
- GI50 (MCF-7 cells): 2.3 µg/mL (≈ 6.31 µM)
- IC50 at 48 h [5]: 2.4 µM
- Selectivity Index Lab B ([6]; Lab B): 1.2
- IC50 [6, 9]: 1.3 µg/mL
- IC50 [6, 8]: 4.1 µg/mL

SMILES: C(=N/Nc1ncnc2sc3c(c12)CCCC3)/c1ccc2c(c1)OCO2 [II-12]
- IC50 [1]: 10.4 µM
- GI50 (VERO cells [2]): > 93.8 µg/mL
- MIC (M. tuberculosis H37Rv): > 100 µg/mL
- GI50 (3T3 cells): > 93.8 µg/mL
- Selectivity Index [3]: 0.6
- IC50 [4]: 6 µg/mL (≈ 17 µM)
- GI50 (M-14 cells): > 93.8 µg/mL
- GI50 (H460 cells): > 93.8 µg/mL
- GI50 (K562 cells): > 93.8 µg/mL
- GI50 (HT-29 cells): > 93.8 µg/mL
- GI50 (DU145 cells): > 93.8 µg/mL
- GI50 (MCF-7 cells): 41.4 µg/mL (≈ 117 µM)
- IC50 at 48 h [5]: 5.7 µM
- Selectivity Index Lab B ([6]; Lab B): 0.7
- IC50 [6, 9]: 2.3 µg/mL
- IC50 [6, 8]: 8 µg/mL

SMILES: CC1CS(=O)(=O)CCN1/N=C/c1ccc([N+](=O)[O-])o1 (stereo not drawn) [Nifurtimox, reference compound]
- IC50 (VERO cells [7]): 80.1 µM
- IC50 ([6]; Table 3, read-out: IC50 T. cruzi): 0.52 µM

SMILES: COc1ccc(/C=N\Nc2ncnc3sc4c(c23)CCCC4)c(OC)c1 [II-13]
- IC50 [1]: 12.2 µM
- GI50 (VERO cells [2]): 17.7 µg/mL (≈ 48 µM)
- MIC (M. tuberculosis H37Rv): > 100 µg/mL
- GI50 (3T3 cells): 7.3 µg/mL (≈ 19.8 µM)
- Selectivity Index [3]: 4.3
- IC50 [4]: 12 µg/mL (≈ 32.6 µM)
- GI50 (M-14 cells): 34.8 µg/mL (≈ 94.4 µM)
- GI50 (H460 cells): 10.9 µg/mL (≈ 29.6 µM)
- GI50 (K562 cells): 2.9 µg/mL (≈ 7.87 µM)
- GI50 (HT-29 cells): 7.4 µg/mL (≈ 20.1 µM)
- GI50 (DU145 cells): 7.4 µg/mL (≈ 20.1 µM)
- GI50 (MCF-7 cells): 7.8 µg/mL (≈ 21.2 µM)
- IC50 at 48 h [5]: 53 µM
- Selectivity Index Lab B ([6]; Lab B): 1.8
- IC50 [6, 8]: 6.8 µg/mL

SMILES: C(=N/Nc1ncnc2sc3c(c12)CCCC3)/c1ccc2ccccc2c1 [II-03]
- IC50 [1]: 14 µM
- GI50 (VERO cells [2]): 2.9 µg/mL (≈ 8.09 µM)
- MIC (M. tuberculosis H37Rv): > 100 µg/mL
- GI50 (3T3 cells): 10 µg/mL (≈ 27.9 µM)
- Selectivity Index [3]: 0.4
- IC50 [4]: 5 µg/mL (≈ 13.9 µM)
- GI50 (M-14 cells): 12.6 µg/mL (≈ 35.1 µM)
- GI50 (H460 cells): 7.4 µg/mL (≈ 20.6 µM)
- GI50 (K562 cells): 2.2 µg/mL (≈ 6.14 µM)
- GI50 (HT-29 cells): 6.9 µg/mL (≈ 19.2 µM)
- GI50 (DU145 cells): 8.7 µg/mL (≈ 24.3 µM)
- GI50 (MCF-7 cells): 3.3 µg/mL (≈ 9.21 µM)
- IC50 at 48 h [5]: 5.7 µM
- Selectivity Index Lab B ([6]; Lab B): 1.1
- IC50 [6, 8]: 4.8 µg/mL

SMILES: C=CCOc1cc(/C=N\Nc2ncnc3sc4c(c23)CCCC4)cc(OCC=C)c1Br [II-17]
- IC50 [1]: 2.6 µM
- GI50 (VERO cells [2]): 2.2 µg/mL (≈ 4.4 µM)
- MIC (M. tuberculosis H37Rv): > 100 µg/mL
- GI50 (3T3 cells): < 0.98 µg/mL
- Selectivity Index [3]: 0.7
- IC50 [4]: 3 µg/mL (≈ 6.01 µM)
- GI50 (M-14 cells): 6.4 µg/mL (≈ 12.8 µM)
- GI50 (H460 cells): 1.6 µg/mL (≈ 3.2 µM)
- GI50 (K562 cells): 2 µg/mL (≈ 4 µM)
- GI50 (HT-29 cells): 1.9 µg/mL (≈ 3.8 µM)
- GI50 (DU145 cells): < 0.98 µg/mL
- GI50 (MCF-7 cells): 1.9 µg/mL (≈ 3.8 µM)
- IC50 at 48 h [5]: 1.7 µM
- Selectivity Index Lab B ([6]; Lab B): 0.4
- IC50 [6, 9]: 10.2 µg/mL
- IC50 [6, 8]: 7.7 µg/mL

SMILES: CC(C)c1ccc(/C=N\Nc2ncnc3sc4c(c23)CCCC4)cc1 [II-07]
- IC50 [1]: 1.3 µM
- GI50 (VERO cells [2]): 2.1 µg/mL (≈ 5.99 µM)
- MIC (M. tuberculosis H37Rv): > 100 µg/mL
- GI50 (3T3 cells): 3.3 µg/mL (≈ 9.42 µM)
- Selectivity Index [3]: 2.3
- IC50 [4]: 1 µg/mL (≈ 2.85 µM)
- GI50 (M-14 cells): 6.2 µg/mL (≈ 17.7 µM)
- GI50 (H460 cells): 2.1 µg/mL (≈ 5.99 µM)
- GI50 (K562 cells): 1.4 µg/mL (≈ 3.99 µM)
- GI50 (HT-29 cells): 2.1 µg/mL (≈ 5.99 µM)
- GI50 (DU145 cells): 3.8 µg/mL (≈ 10.8 µM)
- GI50 (MCF-7 cells): 1.8 µg/mL (≈ 5.14 µM)
- IC50 at 48 h [5]: 3 µM
- Selectivity Index Lab B ([6]; Lab B): 0.5
- IC50 [6, 9]: 0.9 µg/mL
- IC50 [6, 8]: 1.8 µg/mL
